{"source": "patent US9321795B2", "about": "“Use of hydroxycinnamaldehyde glycoside derivatives for treating glomerulonephritis” (National Defense Medical Center, priority 2014, dated 2016)", "key": {"[1]": {"tested_on": "LPS induced mouse GN model", "experiment": "Urine protein and serum BUN (renal function) in LPS induced mouse GN model", "assay_type": "in vivo", "details": "LPS induced GN C57BL/6 mice", "method": "(§1) Experiments were performed on 8-week-old female C57BL/6 mice. The mice were separated into 3 groups at 8-weeks old. One of the groups were injected intravenously with normal saline to be used as normal controls, where the pathological control group and the GN disease treatment group by the cinnamaldehyde derivative of the invention were intraperitoneally injected with […] Salmonella LPS (Sigma, USA) (Am J Physiol Renal Physiol, 296: F1088-1099, 2009; Nephron, 84: 167-176, 2000; Nephron Exp Nephrol, 112: e81-91, 2009) twice a week, continuously for 7 weeks for disease induction. Starting two days before disease induction, the GN disease treatment group was intraperitoneally injected with the cinnamaldehyde derivative of the invention at a daily dose of 30 mg/ml for continuous 7 weeks, while the pathological control group was given placebo daily through intraperitoneal injection. Urine samples were collected in metabolic cages every week. Mice were sacrificed on 7th week after the disease induction. Blood, kidneys, spleen and liver were collected and stored properly for further analysis.\nSerum blood urea nitrogen (BUN) and proteinuria were used to assess mice kidney function. Serum blood urea nitrogen (BUN) measurement of serum collected through the eye socket was done through a tester (Fuji DRI-CHEM 3000) with a test specimen (Fuju DRI-CHEM SLIDE). […]"}, "glomeruli of GN mice": {"tested_on": "glomeruli of GN mice", "experiment": "Renal histopathology (H&E) in LPS induced mouse GN model", "assay_type": "in vivo", "details": "i.p. daily 30 mg/ml, 7 weeks, FIG. 2", "method": "as §1\nTo evaluate the renal histological changes, 10% formalin was used to fix the tissues, and sections were prepared and stained with hematoxylin and eosin (H&E) and observed under microscope. Changes in the tissues were analyzed by semi-quantitation. Items evaluated include: (1) cell density changes in glomerulus; (2) glomerulus fibrosis; (3) cell necrosis in glomerulus; (4) formation of crescent of glomerulonephritis. According to the ratio of glomeruli having pathological changes, 0 to 4 points were given as scores. 25 glomeruli were measured for each group and the sum of the points represents the renal histological changes. Secondly, mesenchymal and renal tubular atrophy, erythrocyte and protein granule sedimentation in renal tubules and mesenchymal inflammation were also evaluated."}, "macrophage (F4/80)": {"tested_on": "macrophage (F4/80)", "experiment": "Immunohistochemistry of kidney, macrophage marker F4/80", "assay_type": "in vivo, mouse", "details": "LPS induced GN mice; i.p. daily 30 mg/ml, 7 weeks; IHC; vs GN disease group; FIG. 3(A),(D),(E)", "method": "as §1\n(§2) In addition, to carry out immunohistochemistry (IHC) analysis, tissue fixation, paraffin-embedding, sectioning, rehydration and antigen retrieval were done with routine procedures, and 3% H2O2 was used to remove endogenous peroxidase. […]"}, "T cell (CD3)": {"tested_on": "T cell (CD3)", "experiment": "Immunohistochemistry of kidney, T cell (CD3) infiltration", "assay_type": "in vivo, mouse", "details": "LPS induced GN mice; i.p. daily 30 mg/ml, 7 weeks; IHC; FIG. 3(A),(B),(C)", "method": "as §1, §2"}, "NF-κB": {"tested_on": "NF-κB", "experiment": "Immunohistochemistry of kidney, NF-κB expression", "assay_type": "in vivo, mouse", "details": "LPS induced GN mice; i.p. daily 30 mg/ml, 7 weeks; IHC; FIG. 4(A),(B)", "method": "as §1, §2"}, "spleen cells": {"tested_on": "spleen cells", "experiment": "Flow cytometry of T cell and B cell activation in spleen cells", "assay_type": "in vivo, mouse", "details": "LPS induced GN mice, i.p. daily 30 mg/ml, 7 weeks", "method": "as §1\nMice spleens were taken out, grinded, rinsed and centrifuged to obtain spleen cells. To carry out mice inflammation reaction analysis, 1×10^6 cells were taken and reacted with anti-mouse CD3-FITC antibody, anti-mouse […] antibody anti-mouse CD8-PE, anti-mouse CD19-FITC antibody and anti-mouse CD69-PE antibody (all purchased from BD Pharmingen, CA) respectively in the dark under room temperature for 30 minutes, and analyzed with flow cytometry (Beckton Dickinson, Calif.)."}, "NF-κB p65": {"tested_on": "NF-κB p65", "experiment": "NF-κB p65 activity in kidney tissues (ELISA)", "assay_type": "in vivo, mouse", "details": "LPS induced GN mice, i.p. daily 30 mg/ml, 7 weeks, FIG. 4(C)", "method": "as §1, with “Blood, kidneys, spleen and liver were collected and stored properly for further analysis.” left out\nRenal cortical tissues were taken and extracted for nuclear protein with nucleus extraction kit (Active Motif, Japan), and nuclear proteins were taken to detect NF-κB p65 activity after protein quantitation. […] Lastly, ELISA reader (Bio-Tek, USA) was used to detect OD 450 nm absorption and the values were converted to sample concentration according to the standard curve."}, "IL-6": {"tested_on": "IL-6", "experiment": "IL-6 protein in kidney tissue (ELISA)", "assay_type": "in vivo, mouse", "details": "LPS induced GN mice, i.p. daily 30 mg/ml, 7 weeks, FIG. 4(D)", "method": "as §1\n(§3) ELISA reader (Bio-Tek, USA) was used to detect OD 450 nm absorption and the values were converted to sample concentration according to the standard curve."}, "IL-1β [2]": {"tested_on": "IL-1β", "experiment": "Mature IL-1β in renal cortical protein (ELISA)", "assay_type": "in vivo, mouse", "details": "LPS induced GN mice, i.p. daily 30 mg/ml, 7 weeks, FIG. 5(H)", "method": "as §1, §3"}, "NLRP3": {"tested_on": "NLRP3", "experiment": "Real-time PCR of kidney tissue, NLRP3", "assay_type": "in vivo, mouse", "details": "LPS induced GN mice, i.p. daily 30 mg/ml, 7 weeks, FIG. 5(A)-(D)", "method": "as §1\n(§4) RNA was extracted from kidney tissues, reverse transcribed to cDNA and Real-Time PCR (Applied Biosystems) was carried out. Items determined include: IL-6, NLRP3, caspase-1, IL-1β and IL-18, where GAPDH gene expression levels were used to carry out the internal correction."}, "caspase-1 [3]": {"tested_on": "caspase-1", "experiment": "Real-time PCR of kidney tissue, caspase-1", "assay_type": "in vivo, mouse", "details": "LPS induced GN mice, i.p. daily 30 mg/ml, 7 weeks, FIG. 5(A)-(D)", "method": "as §1, §4"}, "IL-1β [4]": {"tested_on": "IL-1β", "experiment": "Real-time PCR of kidney tissue, IL-1β", "assay_type": "in vivo, mouse", "details": "LPS induced GN mice, i.p. daily 30 mg/ml, 7 weeks, FIG. 5(A)-(D)", "method": "as §1, §4"}, "IL-18": {"tested_on": "IL-18", "experiment": "Real-time PCR of kidney tissue, IL-18", "assay_type": "in vivo, mouse", "details": "LPS induced GN mice, i.p. daily 30 mg/ml, 7 weeks, FIG. 5(A)-(D)", "method": "as §1, §4"}, "caspase-1 [5]": {"tested_on": "caspase-1", "experiment": "Western blot of renal cortical proteins, caspase-1", "assay_type": "in vivo, mouse", "details": "LPS induced GN mice, i.p. daily 30 mg/ml, 7 weeks", "method": "as §1\nRenal cortical tissues were cut to pieces and placed in buffer, and grinding with sonication was used to lyse the cells. After centrifugation, the supernatant was preserved, and protein concentration was measured with protein concentration analyzing kit (BCA protein Assay Kit, PIERCE). […]"}, "TLR4": {"tested_on": "TLR4", "experiment": "Reverse-transcription PCR, TLR4 mRNA", "assay_type": "in vivo, mouse", "details": "LPS induced GN mice, i.p. daily 30 mg/ml, 7 weeks, semi-quantitated, FIG. 6", "method": "as §1\n(§5) Reverse-transcription PCR was used to evaluate and semi-quantitate TLR4 and its following adaptin Myd88 mRNA expression. […]"}, "MyD88": {"tested_on": "MyD88", "experiment": "Reverse-transcription PCR, MyD88 mRNA", "assay_type": "in vivo, mouse", "details": "LPS induced GN mice, i.p. daily 30 mg/ml, 7 weeks, semi-quantitated, FIG. 6", "method": "as §1, §5"}, "[6]": {"experiment": "Drug safety by weekly weight change of mice", "assay_type": "in vivo, mouse", "details": "LPS induced GN mice, i.p. daily 30 mg/ml, 7 weeks; for weight change of mice: recorded each week, compared to normal control group, FIG. 7", "method": "as §1\nDuring the experiment processes, the drug safety of the cinnamaldehyde derivative was assessed through recording the weight change of mice each week."}}}
{"molecule": "O=CC=Cc1ccc(OC2OC(CO)C(O)C(O)C2O)cc1", "note": "(centres unmarked) [cinnamaldehyde derivative, 4-hydroxyphenylacrylaldehyde glycoside]", "values": [{"measurement": "serum blood urea nitrogen (BUN)", "setting": "[1]; i.p. daily 30 mg/ml for 7 weeks, vs pathological control group, FIG. 1(B)", "value": "significantly lower"}, {"measurement": "urine protein content (proteinuria)", "setting": "[1]; i.p. daily dose of 30 mg/ml for 7 weeks, vs disease group, *p<0.05, FIG. 1(A)", "value": "reduce proteinuria"}, {"measurement": "glomerular fibrosis", "setting": "glomeruli of GN mice", "value": "no fibrosis condition occurrence was observed"}, {"measurement": "glomerular proliferation", "setting": "glomeruli of GN mice", "value": "significantly ameliorated"}, {"measurement": "lymphocyte infiltration", "setting": "glomeruli of GN mice", "value": "reduced"}, {"measurement": "macrophage (F4/80) staining in kidney", "setting": "macrophage (F4/80)", "value": "significantly less"}, {"measurement": "T lymphocyte (CD3) infiltration in glomeruli", "setting": "T cell (CD3)", "value": "significantly lowered"}, {"measurement": "NF-κB expression in kidney tissue", "setting": "NF-κB", "value": "reduce its expression level"}, {"measurement": "Helper T cells (CD4+) activation ratio in spleen cells", "setting": "spleen cells; ***p<0.005, FIG. 3(G)", "value": "significantly ameliorated"}, {"measurement": "T cell (CD3+) activation in spleen cells", "setting": "spleen cells; FIG. 3(F)", "value": "showed the tendency of reduction"}, {"measurement": "B cell (CD19+) activation in spleen cells", "setting": "spleen cells; FIG. 3(H)", "value": "no significant difference"}, {"measurement": "NF-κB p65 content (activation) in renal cortical proteins", "setting": "NF-κB p65", "value": "lower its activation level"}, {"measurement": "IL-6 protein expression level in kidney tissue", "setting": "IL-6", "value": "reduce IL-6 expression"}, {"measurement": "amount of mature IL-1β", "setting": "IL-1β [2]", "value": "significantly decreased"}, {"measurement": "amount of mature IL-1β", "setting": "IL-1β [2]; listed as hydroxycinammaldehde glycoside derivate", "value": "significantly increased in GN disease group compared to hydroxycinammaldehde glycoside derivate treated GN group"}, {"measurement": "NLRP3 gene expression level in kidney tissue", "setting": "NLRP3", "value": "significantly reduced"}, {"measurement": "caspase-1 gene expression level in kidney tissue", "setting": "caspase-1 [3]", "value": "significantly reduced"}, {"measurement": "IL-1β gene expression level in kidney tissue", "setting": "IL-1β [4]", "value": "significantly reduced"}, {"measurement": "IL-18 gene expression level in kidney tissue", "setting": "IL-18", "value": "significantly reduced"}, {"measurement": "matured caspase-1 expression level", "setting": "caspase-1 [5]; FIG. 5(E)", "value": "higher in the disease group than in the cinnamaldehyde derivative treatment group"}, {"measurement": "pro-caspase-1 expression level", "setting": "caspase-1 [5]; FIG. 5(E)-(G)", "value": "reduced"}, {"measurement": "TLR4 mRNA expression level", "setting": "TLR4", "value": "reduced"}, {"measurement": "MyD88 mRNA expression level", "setting": "MyD88", "value": "reduced"}, {"measurement": "side-effects in animals", "setting": "[6]; judged from weight change", "value": "did not cause obvious side-effects"}, {"measurement": "weight change of mice", "setting": "[6]; listed as hydroxycinammaldehde glycoside derivative", "value": "does not result in weight loss"}, {"measurement": "weight change of mice", "setting": "[6]; listed as hydroxycinnamaldehyde derivative", "value": "stable increase in their bodyweight"}]}
